According to PubChem BioAssay AID1648 (Sanford-Burnham Center for Chemical Genomics, 2009):
The source made the active and inactive calls. How the calls were made is not given here.

Target: Serine/threonine-protein kinase mTOR (Homo sapiens) (UniProt P42345)
Assay: mTOR FRB domain ligand binding – biophysical, NMR (AID 1648)
Settings: NMR binding to FRB domain, chemical shift

Chain of Serine/threonine-protein kinase mTOR (Homo sapiens) (P42345 2015-2114): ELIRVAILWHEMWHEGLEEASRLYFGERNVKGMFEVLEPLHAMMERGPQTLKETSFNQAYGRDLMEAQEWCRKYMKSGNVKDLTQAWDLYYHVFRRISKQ

Row | Compound | Kd
1 | c1cc(CNc2ccc3c(c2)OCCO3)ccn1 | > 4 mM (inactive)
2 | O=C(CSc1ccnc(=O)[nH]1)NCc1ccccc1 | > 4 mM (inactive)
3 | Cc1ccc(C(=O)NCCO)c(Cl)c1 | > 4 mM (inactive)
4 | NC1=NC(=O)C(CC(=O)Nc2ccccc2F)S1 (centres undefined) | > 4 mM (inactive)
5 | O=S1(=O)NC(=NCc2ccccc2)c2ccccc21 | > 4 mM (inactive)
6 | OC12C=CC(CC1)CC2 | > 4 mM (inactive)
7 | CC(=O)N1CC2(C)CN(C(C)=O)CC(C)(C1)C2 | > 4 mM (inactive)
8 | CC(=O)NC(=S)Nc1ccc(S(N)(=O)=O)cc1 | > 4 mM (inactive)
9 | COc1ccc2ccc(=O)oc2c1CC=C(C)C | > 4 mM (inactive)
10 | CC(=O)Nc1ccc(S(=O)(=O)Nc2cc(C)on2)cc1 | > 4 mM (inactive)
11 | O=S1(=O)CCC(N2CCCCC2)C1 (centres undefined) | > 4 mM (inactive)
12 | O=C(Nc1cccc2cccnc12)c1cccnc1 | > 4 mM (inactive)
13 | S=C(c1ccc(N2CCOCC2)cc1)N1CCCCC1 | > 4 mM (inactive)
14 | CN(C)c1ccc2c(=O)[nH][nH]c(=O)c2c1 | > 4 mM (inactive)
15 | O=C(NCc1ccncc1)c1cccc(F)c1 | > 4 mM (inactive)
16 | CS(=O)(=O)N1CCN(C(=O)Cc2cccs2)CC1 | > 4 mM (inactive)
17 | O=C(O[C@@H]1Cc2c(O)cc(O)cc2O[C@@H]1c1cc(O)c(O)c(O)c1)c1cc(O)c(O)c(O)c1 | > 4 mM (inactive)
18 | Oc1cc2c(cc1O)C1c3ccc(O)c(O)c3OCC1(O)C2 (centres undefined) | > 4 mM (inactive)
19 | Cn1c(C(=O)O)ccc1S(N)(=O)=O | > 4 mM (inactive)
20 | CSc1ncc(C(=O)O)n1Cc1ccccc1 | > 4 mM (inactive)

Row | Compound | Kd
21 | CC(O)C(=O)N/N=C/c1ccccc1 (centres undefined) | > 4 mM (inactive)
22 | CC12CCC(O)CC1CCC1C2[C@H](O)CC2(C)C(C3=CC(=O)OC3)CCC12O (some centres undefined) | > 4 mM (inactive)
23 | ON=c1ccc2nc3ccccc3nc2cc1 | > 4 mM (inactive)
24 | O=C1NC(=Nc2ccccc2)S/C1=C/c1cccnc1 | > 4 mM (inactive)
25 | Cc1cc(C)n2nc(SCC(=O)c3ccccc3)nc2n1 | > 4 mM (inactive)
26 | O=C1C2CCCCC2C(=O)N1c1nccs1 (centres undefined) | > 4 mM (inactive)
27 | Cc1ccc(/C=N/NC(N)=O)o1 | > 4 mM (inactive)
28 | c1csc(-c2nnc3ccccn23)c1 | > 4 mM (inactive)
29 | c1ccc(-c2nsc(N3CCNCC3)n2)cc1 | > 4 mM (inactive)
30 | Cc1c(C)[n+](=O)c(-c2cccs2)c(C)n1[O-] | > 4 mM (inactive)
31 | CC(O)(C(=O)O)c1ccccc1 (centres undefined) | > 4 mM (inactive)
32 | O=C(O)CCC(=O)Nc1ccccn1 | > 4 mM (inactive)
33 | O=C(c1cc2ccccc2o1)c1nc2c(n1O)CCCCC2 | > 4 mM (inactive)
34 | O=C(c1cccs1)N1CCCc2ccccc21 | > 4 mM (inactive)
35 | COc1cc2c3cc1Oc1c(OC)c(OC)cc4c1[C@@H](Cc1cccc(c1)Oc1ccc(c(O)c1)C[C@@H]3N(C)CC2)N(C)CC4 | > 4 mM (inactive)
36 | O=C(O)c1cccc2nsnc12 | > 4 mM (inactive)
37 | c1ccc(Cn2c(Nn3cnnc3)nc3ccccc32)cc1 | > 4 mM (inactive)
38 | CN(C(N)=O)C1(C)CCS(=O)(=O)C1 (centres undefined) | > 4 mM (inactive)
39 | Cc1nc2ccccc2c(=O)n1NC(=O)Nc1ccccc1 | > 4 mM (inactive)
40 | NC1=NC(=O)/C(=C\c2ccccc2)S1 | > 4 mM (inactive)

Row | Compound | Kd
41 | CC(=O)NN1C(=O)/C(=C\c2ccc(O)cc2)SC1=S | > 4 mM (inactive)
42 | O=c1c2ccccc2[nH]c2ncccc12 | > 4 mM (inactive)
43 | O=C(/C=C/c1ccccc1)c1ccc(O[C@@H]2O[C@H](CO)[C@@H](O)[C@H](O)[C@H]2O)cc1O | > 4 mM (inactive)
44 | O=C(O)c1ccc(-c2cccs2)s1 | > 4 mM (inactive)
45 | Cc1ccc2c(c1)CC[C@H]1CC(=O)CC[C@]21C | > 4 mM (inactive)
46 | Nc1ccc(S(=O)(=O)N2CCCCC2)cc1 | > 4 mM (inactive)
47 | OCCNC(=S)Nc1ccccc1 | > 4 mM (inactive)
48 | COC(=O)C(O)c1ccccc1 (centres undefined) | > 4 mM (inactive)
49 | CON(C)C(=O)Nc1ccc(Cl)cc1 | > 4 mM (inactive)
50 | Cc1ccc(-n2nnnc2SCC(N)=O)c(C)c1 | > 4 mM (inactive)
51 | Nc1ncnc2c1ncn2[C@@H]1O[C@H](CO)[C@@H](O)[C@H]1O | > 4 mM (inactive)
52 | CC1(C)SCC(C(=O)O)N1C=O (centres undefined) | > 4 mM (inactive)
53 | Cc1c(C(=O)NCc2ccccn2)oc2ccccc12 | > 4 mM (inactive)
54 | CC(O)c1ccc(C(C)O)cc1 (centres undefined) | > 4 mM (inactive)
55 | CN(C)c1nc(N2CCOCC2)nc(N2CCOCC2)n1 | > 4 mM (inactive)
56 | Cc1ccc(C(=O)NC2=NCCS2)o1 | > 4 mM (inactive)
57 | Cc1cc(C)nc(NC(N)=NCc2ccco2)n1 | > 4 mM (inactive)
58 | CC(C)c1nnc(N)s1 | > 4 mM (inactive)
59 | CC(C)(OC(=O)c1ccccc1)[C@@H]1Cc2cc3ccc(=O)oc3cc2O1 | > 4 mM (inactive)
